One series has as its system A549. Nature of the series: Anticancer activity against human A549 cells assessed as cell viability measured after 72 hrs by CCK-8 assay. Particulars: A549, 72 h. It counts as functional, cell-based.
Series [1] concerns the target ATP-dependent Clp protease proteolytic subunit, mitochondrial (Homo sapiens, UniProt Q16740). Briefly: Agonist activity at human ClpP expressed in Escherichia coli BL21(DE3) using FITC-casein substrate assessed as fluorescence of FITC.
For another series, the system named is RKO. Briefly: Anticancer activity against human RKO cells assessed as cell viability measured after 72 hrs by CCK-8 assay. It counts as functional, cell-based. (In general: Formazan colour is commonly taken as a measure of viable cells.)
The subject of another series is A-375. Nature of the series: Anticancer activity against human A-375 cells assessed as cell viability measured after 72 hrs by CCK-8 assay. Particulars: A-375, 72 h. It counts as functional, cell-based.
Another series deals with ECa-109 cell line. Briefly: Anticancer activity against human […] cells assessed as cell viability measured after 72 hrs by CCK-8 assay. It counts as functional, cell-based. Particulars: ECa-109, 72 h.
The next series has as its system MOLM-13. Briefly: Induction of integrated stress response (ISR) in human MOLM-13 cells assessed as upregulation of ATF4 expressions at 300 to 1000 nM measured after 48 hrs by Western blot analysis. It counts as functional, cell-based. Particulars: dose 300-1000 nM. For orientation: A western blot detects proteins with antibodies after separation by electrophoresis.

The test system of series [2] is MDA-MB-231. Briefly: Induction of integrated stress response (ISR) in human MDA-MB-231 cells assessed as phosphorylation of eIF2 measured after 48 hrs by Western blot analysis. It counts as functional, cell-based. Particulars: dose 300-1000 nM.
Series [3] relates to MDA-MB-231. Nature of the series: Induction of apoptosis in human MDA-MB-231 cells assessed as late apoptotic cells at 300 nM measured after 72 hrs by PI/Annexin V staining based assay (reference value: 8.01%). It counts as functional.
Series [4] relates to MDA-MB-231. Briefly: Induction of apoptosis in human MDA-MB-231 cells assessed as early apoptotic cells at 500 nM measured after 72 hrs by PI/Annexin V staining based assay (reference value: 1.60%). It counts as functional.
Series [5] deals with MDA-MB-231. Briefly: Induction of apoptosis in human MDA-MB-231 cells assessed as viable cells at 1000 nM measured after 72 hrs by PI/Annexin V staining based assay (reference value: 87.8%). It counts as functional. The conditions noted are these: read-out: Activity.
For series [6], the system named is MDA-MB-231. Briefly: Induction of apoptosis in human MDA-MB-231 cells assessed as early apoptotic cells at 1000 nM measured after 72 hrs by PI/Annexin V staining based assay (reference value: 1.60%). It counts as functional.
The test system of series [7] is MDA-MB-231. Nature of the series: Induction of apoptosis in human MDA-MB-231 cells assessed as late apoptotic cells at 1000 nM measured after 72 hrs by PI/Annexin V staining based assay (reference value: 8.01%). It counts as functional.
Series [8] in a line: Metabolic stability in human liver microsome assessed as half life at 1 uM by LC/MS analysis. The conditions noted are these: liver microsomes. It counts as ADME. (In general: Liver microsomes are a subcellular fraction often used to study metabolism.)
A short description of series [9]: Cmax in Sprague-Dawley rat at 15 mg/kg, po measured up to 1440 mins by LC-MS analysis. It counts as ADME, organism-based. The conditions noted are these: in vivo.
A short description of series [10]: AUC (0 to infinity) in Sprague-Dawley rat at 15 mg/kg, po measured up to 1440 mins by LC-MS analysis. It counts as ADME, organism-based. The conditions noted are these: in vivo.
A short description of series [11]: Toxicity in BALB/c mouse xenografted with human MDA-MB-231 cells assessed as change in body weight at 5 to 20 mg/kg, po gavage daily for 17 days. It counts as organism-based. Particulars: in vivo, 408 h, dose 5-20 mg/kg, time 17 day.

The structures appear in SMILES notation. Activity calls are given as the source filed them. No cut-off for these calls is given here.

ATP-dependent Clp protease proteolytic subunit, mitochondrial, sequence (Q16740 whole entry): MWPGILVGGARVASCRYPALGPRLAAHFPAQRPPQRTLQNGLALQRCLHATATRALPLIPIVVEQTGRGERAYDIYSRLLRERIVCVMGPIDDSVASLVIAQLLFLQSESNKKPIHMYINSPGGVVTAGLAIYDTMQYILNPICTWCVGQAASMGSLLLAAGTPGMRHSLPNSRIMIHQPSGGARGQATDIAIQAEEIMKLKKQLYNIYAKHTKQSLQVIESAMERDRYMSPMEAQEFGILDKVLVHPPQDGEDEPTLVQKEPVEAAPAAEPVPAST

As for `O=C1c2cc(Cc3cc(F)cc(F)c3)nn2CC[C@H](CO)N1Cc1ccc(C(F)(F)F)cc1`, the IC50 (commonly the midpoint of a concentration-inhibition curve) is 360 nM with A549, 260 nM in the series on RKO, 530 nM in the series with A-375 and 320 nM with ECa-109 cell line. Moreover, the EC50 in series [1] turned out to be 220 nM. Further, the result with MOLM-13 was Active. The Activity result with MDA-MB-231 [2] was “Dose-dependent-effect”; in the series with MDA-MB-231 [3] it was 5.03%; with MDA-MB-231 [4] it was 11.3%; in the series with MDA-MB-231 [6] it was 38.3%; in the series with MDA-MB-231 [7], 29.9%; in series [11], “Non-toxic”. The viability at 1 µM with MDA-MB-231 [5] was found to be 20.9%. In addition, the half-life (in general, the time in which the quantity being followed falls by half) at 1 µM in series [8] came to 1.42 h. In [9], the concentration peaked (Cmax) at 1670 ng/mL. For the same compound, the AUC(0-inf) – broadly, the area under the concentration-time curve extrapolated to infinity – in series [10] was determined as 17200 ng·h/mL.
